The values that follow come from PMC11547703, “Design, Synthesis, and Evaluation of Doxifluridine Derivatives as Nitroreductase-Responsive Anticancer Prodrugs” (Molecules, 2024).

Data set [1] can be described thus: Stability of target compounds in rat plasma, HPLC. The format is in vitro ADME, SD rat. The note with it: 50 μM, 37 °C. As for the experimental part: The stability of the target compounds was tested first, and excellent stability was essential for physiological function evaluation. Phosphate-buffered saline (PBS) of different pH values was used to evaluate the stability of the target compounds in a weakly acidic tumor microenvironment (pH 6.5) versus a weakly alkaline normal physiological environment (pH 7.4). […] The stability of the target compounds in mouse and rat plasma was excellent. The concentrations of all target compounds remained at >80% of the initial concentrations after 24 h, with the concentrations of compounds 1c, 2c, and 3c being 89%, 88%, and 83% in mouse plasma and 86%, 84%, and 81% in rat plasma, respectively (Figure 3c,d).
PBS (pH 7.4) was made with 137 mM NaCl, 2.7 mM KCl, 10 mM Na2HPO4, and 1.8 mM KH2PO4, while PBS (pH 6.5) was made with 24.6 mM Na2HPO4 and 175.4 mM NaH2PO4. The target compounds were dissolved into the different buffers (50 μM; 1% DMSO), and the mixtures were incubated at 37 °C. A 100-μL sample was transferred to a vial for HPLC analysis at 1, 2, 4, 8, 12, and 24 h. C57BL/6 mice and SD rat orbital whole blood was collected into anticoagulation tubes and centrifuged at 4000× g for 5 min at 4 °C to obtain plasma. The target compounds were dissolved into the plasma (50 μM; 1% DMSO) and incubated at 37 °C. Each sample (100 μL) was collected and precipitated using 100 μL of acetonitrile. The mixture was vortexed for 5 min and centrifuged at 10,000× g for 10 min. The supernatant was transferred to a vial for HPLC analysis after 1, 2, 4, 8, 12, and 24 h.

The target in data set [2] is T1, NTR (Escherichia coli, UniProt P38489).
T1 construct: host or cells: Escherichia coli
T1 sequence (P38489 whole entry): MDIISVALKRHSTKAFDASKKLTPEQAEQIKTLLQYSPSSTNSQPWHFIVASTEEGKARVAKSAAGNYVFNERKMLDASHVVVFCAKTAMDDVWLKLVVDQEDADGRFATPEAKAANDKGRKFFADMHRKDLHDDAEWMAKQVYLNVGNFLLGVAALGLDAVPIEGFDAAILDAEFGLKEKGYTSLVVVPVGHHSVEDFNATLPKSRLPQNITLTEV
Kind of data set: In vitro release evaluation: incubation with NTR and NADH, HPLC of derivative and released 5′-DFUR. The format is biochemical. The note with it: Escherichia coli; 50 µM compound, NTR 50 µg/mL, NADH 2 mM, PBS pH 7.4, 37 °C; read-out: half-life in the presence of NTR (converted). As for the experimental part: (§1) NTR levels are reportedly much higher in hypoxic tumors than in normal tissues. To investigate the mechanism of activation of the derivatives and the amount of 5′-DFUR released, we treated the target compounds with NTR extracted from Escherichia coli to determine whether they provided the desired active agent as expected. The test compounds (50 µM, 1% dimethyl sulfoxide [DMSO]) were dissolved in PBS buffer at pH 7.4 and incubated with NTR (50 µg/mL) and NADH (2 mM) at 37 °C, and the concentrations of the derivatives and 5′-DFUR during the bioreduction were detected by high-performance liquid chromatography (HPLC). The designed target compounds 1c–3c could be metabolized to form 5′-DFUR in the presence of NTR, while the nitro-free compounds 4c–6c could not be metabolized to form 5′-DFUR. […] The metabolic rate of compound 2c was the highest, with a half-life of 0.6 h. It was completely degraded after 4 h, and 69.6% of 5′-DFUR was released. […] During the experiment, other metabolites, such as hydroxylamine derivatives and amino derivatives generated by reducing the nitro group were also detected. […] Compounds 4c, 5c and 6c, without nitro groups, remained well-stabilized under NTR conditions, with concentrations > 90% after 12 h.
(§2) The target compounds NTR and NADH were dissolved in 10 mM PBS (pH 7.4; 1% DMSO). The final concentrations of the target compounds NTR and NADH in the mixtures were 50 μM, 50 μg/mL, and 2 mM, respectively. The mixture were incubated at 37 °C. The sample (100 μL) was collected and quenched by 100 µL of cold methanol. The mixture was vortexed for 5 min and centrifuged at 10,000× g for 10 min. The supernatant was transferred to a vial for HPLC analysis at 0.25, 0.5, 1, 2, 4, 8, and 12 h.

For data set [3], the target named is T2, NTR extracted from Escherichia coli (Escherichia coli, UniProt P38489).
T2 construct: host or cells: Escherichia coli
T2 sequence (P38489 whole entry): as above
Described as above. The format is biochemical. As for the experimental part: as §1, §2

Data set [4] has as its system MCF-7 human breast cancer cells. In words: In vitro cytotoxicity (MTT assay) in MCF-7 cells with or without NTR. The format is cell-based. The note with it: for IC50: Homo sapiens, MCF7, MCF-7, 24 h, MTT. As for the experimental part: The cytotoxicity of the target compounds 1c–6c were evaluated in MCF-7 human breast cancer cells and HT29 human colon cancer cells. These two cell lines were chosen because 5′-DFUR is currently used to treat breast and gastrointestinal tumors. The cells were incubated with the target compounds at various concentrations for 24 h in the presence or absence of NTR. The cell viability and proliferation behavior were assessed by 3-(4,5-dimethylthiazol-2-yl)-2,5-diphenyltetrazolium (MTT) assay. The half-maximal inhibitory concentration values of the tested compounds for inhibiting cell proliferation are shown in Table 1.
MCF-7 human breast cancer cells or HT29 human colon cancer cells purchased from the National Collection of Authenticated Cell Cultures were cultured in RPMI 1640 medium, and McCoy’s 5A medium supplemented with 10% fetal bovine serum and 1% penicillin-streptomycin in a humidified 5% CO2 incubator at 37 °C. Cells in the logarithmic growth phase were inoculated into 96-well plates at a density of 1.0 × 10^4 cells per well and cultured for 24 h. The target compounds were dissolved in DMSO and diluted in medium to different concentrations. The cells were then incubated with different concentrations of the target compound for 24 h. The cells in the NTR treatment group were incubated with various concentrations of compounds, NTR (final concentration, 50 µg/mL) and NADH (final concentration, 2 mM) for 24 h. Cell viability and proliferation were measured by MTT assay. Cell viability was calculated according to the following formula: cell viability (%) = (OD value of treatment group–OD value of blank group)/(OD value of control group–OD value of blank group) × 100. The half-maximal inhibitory concentration values were calculated from concentration-response curves using GraphPad PRISM (version 5.0, GraphPad, San Diego, CA, USA).

Where two headings read alike, the source gives them in different places.

As to `C[C@H]1O[C@@H](n2cc(F)c(=O)n(Cc3ccc([N+](=O)[O-])o3)c2=O)[C@H](O)[C@@H]1O` [Compound 2c], the “concentration relative to initial concentration after 24 h in rat plasma” value in data set [1] was found to be 84%. In data set [2], the half-life at 50 µM is 36 min. The “time after which compound was completely degraded by NTR” value in data set [3] (50 µM compound, NTR 50 µg/mL, NADH 2 mM, PBS pH 7.4, 37 °C) worked out at 4 h. Further, the “5′-DFUR released” value in data set [3] (50 µM compound, NTR 50 µg/mL, NADH 2 mM, PBS pH 7.4, 37 °C, at complete degradation) is on record as 69.6%. For the same molecule, in data set [3] (versus 1c and 3c, Figure 4d), the “amount of 5′-DFUR released (AUC0–12h of relative amount), comparison in words” value is reported as “significantly higher”. The half-maximal inhibitory concentration (IC50) in data set [4] (medium with NTR and NADH 2 mM, read-out: IC50 NTR) amounted to 80.3 µM; in data set [4] (medium without NTR, read-out: IC50 NTR-Free), 400 µM. The “IC50 (NTR-Free)/ IC50 (NTR)” value in data set [4] (MCF-7, selectivity ratio) came out at 4.99.

What is called half-life is the time in which the quantity being followed falls by half. As a reminder, the IC50 is the concentration at which inhibition is half-maximal.
